Tests used:
[1] = target: T1, 5-HT1A receptor (Rattus norvegicus, UniProt P19327); assay: 5-HT1A receptor binding activity in rat hippocampal membrane homogenate; conditions: method of Alexander and Wood
T1 construct: rat hippocampal membrane homogenate; from tissue; host or cells: rat hippocampus, membrane homogenate
T1 sequence (P19327 1-422): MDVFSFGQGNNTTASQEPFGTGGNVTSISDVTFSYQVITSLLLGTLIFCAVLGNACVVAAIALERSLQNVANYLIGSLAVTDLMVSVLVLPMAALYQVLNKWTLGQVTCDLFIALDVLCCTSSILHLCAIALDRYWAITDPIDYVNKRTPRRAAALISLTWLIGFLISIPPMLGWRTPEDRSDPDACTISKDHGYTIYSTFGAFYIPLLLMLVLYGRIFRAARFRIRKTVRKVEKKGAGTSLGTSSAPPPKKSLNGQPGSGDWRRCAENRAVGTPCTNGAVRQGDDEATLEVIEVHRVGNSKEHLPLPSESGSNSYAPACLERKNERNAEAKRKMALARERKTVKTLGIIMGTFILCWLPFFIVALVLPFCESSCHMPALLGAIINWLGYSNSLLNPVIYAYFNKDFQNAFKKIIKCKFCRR
Experimental: The compounds of the invention are tested for 5-HT1A receptor binding activity in rat hippocampal membrane homogenate by the method of B S Alexander and M D Wood, J Pharm Pharmacol, 1988, 40, 888-891.

[2] = target: T2, 5-HT1A receptor (Cavia porcellus, UniProt A0A286Y074); assay: 5-HT1A receptor antagonism: antagonism of 5-carboxamidotryptamine in the guinea-pig ileum in vitro; assay type: cell-based
T2 construct: guinea-pig ileum in vitro; from tissue; host or cells: guinea-pig ileum
T2 sequence (A0A286Y074 1-421): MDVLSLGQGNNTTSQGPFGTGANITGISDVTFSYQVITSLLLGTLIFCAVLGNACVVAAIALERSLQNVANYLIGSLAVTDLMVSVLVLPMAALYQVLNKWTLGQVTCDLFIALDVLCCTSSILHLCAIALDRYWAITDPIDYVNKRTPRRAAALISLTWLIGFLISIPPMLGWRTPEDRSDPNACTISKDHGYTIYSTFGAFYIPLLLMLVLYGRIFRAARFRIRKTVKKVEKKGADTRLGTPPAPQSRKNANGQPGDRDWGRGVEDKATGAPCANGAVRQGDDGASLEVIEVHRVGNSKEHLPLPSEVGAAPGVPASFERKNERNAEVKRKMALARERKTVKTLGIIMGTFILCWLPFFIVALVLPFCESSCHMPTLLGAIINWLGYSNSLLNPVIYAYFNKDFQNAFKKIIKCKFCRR
Experimental: The compounds are tested for 5-HT1A receptor antagonism activity in a test involving the antagonism of 5-carboxamidotryptamine in the guinea-pig ileum in vitro (based upon the procedure of Fozard et al, Br J Pharmac, 1985, 86, 601P).

IC50 [1]: 2 nM
pA2, 5-HT1A receptor antagonism [2]: 8.1
Compound: COc1ccccc1N1CCN(CCc2ccccc2-c2ccccc2)CC1 [Example 3, 1-(2-(2-biphenyl)ethyl)-4-(2-methoxyphenyl)piperazine]
